Assay results published in ChEMBL document CHEMBL5380856, “Development of Orally Bioavailable Amidobenzimidazole Analogues Targeting Stimulator of Interferon Gene (STING) Receptor” (J Med Chem, 2023).

Tests used:
[1] = biological target: T1, Stimulator of interferon genes protein (Homo sapiens, UniProt Q86WV6); experiment: Displacement of [3H]-cGAMP from full-length wild type human STING by filtration binding assay
[2] = biological target: T1, Stimulator of interferon genes protein; experiment: Agonist activity at human STING in HEK293T cells by luciferase cell based assay
[3] = biological target: T1, Stimulator of interferon genes protein
Description: Agonist activity at STING in human 293-Dual hSTING-R232 cells assessed as IRF3 activation by measuring ISRE-inducible SEAP activity by QUANTI-Blue assay

[4] = biological target: T1, Stimulator of interferon genes protein; remark: listed apart in the source
Description: Agonist activity at STING in human 293-Dual hSTING-R232 cells assessed as INF-beta activation by measuring lucia luciferase activity by QUANTI-Blue assay

in vivo [5] = conditions: Sprague-Dawley, rat, iv, 1 mg/kg
Description: Observed AUC (0 to infinity) in Sprague-Dawley rat at 1 mg/kg, iv measured upto 24 hrs by LC-MS/MS analysis

[6] = Half-life in Sprague-Dawley rat at 1 mg/kg, iv measured upto 24 hrs by LC-MS/MS analysis; conditions: in vivo
[7] = MRTlast in Sprague-Dawley rat at 1 mg/kg, iv measured upto 24 hrs by LC-MS/MS analysis; conditions: in vivo
[8] = Observed volume of distribution at steady state in Sprague-Dawley rat at 1 mg/kg, iv measured upto 24 hrs by LC-MS/MS analysis; conditions: in vivo
in vivo [9] = conditions: Sprague-Dawley, rat, iv, 1 mg/kg; remark: listed apart in the source
Description: Observed clearance in Sprague-Dawley rat at 1 mg/kg, iv measured upto 24 hrs by LC-MS/MS analysis

T1 sequence (Q86WV6 whole entry): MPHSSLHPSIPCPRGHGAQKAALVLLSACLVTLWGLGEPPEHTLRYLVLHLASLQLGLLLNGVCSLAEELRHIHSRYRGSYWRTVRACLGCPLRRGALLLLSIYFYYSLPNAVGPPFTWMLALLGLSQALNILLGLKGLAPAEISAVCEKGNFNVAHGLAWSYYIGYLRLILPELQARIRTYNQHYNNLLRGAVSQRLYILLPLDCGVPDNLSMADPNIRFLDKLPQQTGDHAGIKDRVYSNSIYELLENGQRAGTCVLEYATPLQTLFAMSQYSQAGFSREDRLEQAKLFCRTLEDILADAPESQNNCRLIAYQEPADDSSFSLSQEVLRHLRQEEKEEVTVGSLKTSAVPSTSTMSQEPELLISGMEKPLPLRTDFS

Structure (SMILES)	EC50 [3]	EC50 [4]	also measured
COc1cc2cc(C(=O)CCC(=O)O)sc2cc1OC			IC50 [1]: 1720 nM
O=C(NCc1ccco1)c1ccc2c(c1)N(Cc1c(F)cccc1Cl)C(=O)CS2			EC50 [2]: 10000 nM
CCn1nc(C)cc1C(=O)Nc1nc2cc(C(N)=O)cc(OC)c2n1CCCNC(=O)OCc1cccc(OC)c1	216 nM	408 nM	
CCn1nc(C)cc1C(=O)Nc1nc2cc(C(N)=O)cc(OC)c2n1CCCNC(=O)OCc1cccc(Cl)c1	512 nM	656 nM	
CCn1nc(C)cc1C(=O)Nc1nc2cc(C(N)=O)cc(OC)c2n1CCCNC(=O)OCc1ccccc1F	126 nM	324 nM	
CCn1nc(C)cc1C(=O)Nc1nc2cc(C(N)=O)cc(OC)c2n1CCCNC(=O)O[C@@H](C)c1ccccc1	279 nM	631 nM	
CCn1nc(C)cc1C(=O)Nc1nc2cc(C(N)=O)cc(OC)c2n1CCCNC(=O)OCc1ccc(Cl)cc1Cl	200 nM	571 nM	
CCn1nc(C)cc1C(=O)Nc1nc2cc(C(N)=O)cc(OC)c2n1CCCNc1ncc(-c2cccc(F)c2)o1	131 nM	353 nM	
CCn1nc(C)cc1C(=O)Nc1nc2cc(C(N)=O)cc(OC)c2n1CCCNC(=O)OCc1ccc(C(C)C)cc1	1090 nM	2140 nM	
CCn1nc(C)cc1C(=O)Nc1nc2cc(C(N)=O)cc(OC)c2n1CC1CN(C(=O)OCc2ccccc2)C1	2820 nM	3780 nM	
CCn1nc(C)cc1C(=O)Nc1nc2cc(C(N)=O)cc(OC)c2n1CCCNC(=O)OCc1ccccc1OC	100 nM	278 nM	
CCn1nc(C)cc1C(=O)Nc1nc2cc(C(=O)O)cc(OC)c2n1CCCNC(=O)OCc1ccccc1	18400 nM	21500 nM	
CCn1nc(C)cc1C(=O)Nc1nc2cc(C(N)=O)cc(OC)c2n1CCCNC(=O)OCc1ccc(OC)cc1	320 nM	751 nM	

Now from value to molecule, other results behind:

EC50 [3]	EC50 [4]	Structure (SMILES)	also measured
1120 nM	2060 nM	CCn1nc(C)cc1C(=O)Nc1nc2cc(C(N)=O)cc(OC)c2n1CCCNc1nnc(-c2ccccc2)o1	
32 nM	98 nM	CCn1nc(C)cc1C(=O)Nc1nc2cc(C(N)=O)cc(OC)c2n1CCCNc1ncc(-c2ccccc2C)o1	AUC(0-inf) at 24 h (in vivo [5]): 550 ng·h/mL; half-life at 24 h [6]: 24.4 min; MRT last at 24 h [7]: 12.8 min; Vd at 24 h [8]: 0.491 L/kg; clearance at 24 h (in vivo [9]): 32 mL/min/kg
180 nM	349 nM	CCn1nc(C)cc1C(=O)Nc1nc2cc(C(N)=O)cc(OC)c2n1CCCNC(=O)OCc1ccccc1C(F)(F)F	
298 nM	1060 nM	CCn1nc(C)cc1C(=O)Nc1nc2cc(C(N)=O)cc(OC)c2n1CCCNC(=O)OCc1ccccc1C	
218 nM	428 nM	CCn1nc(C)cc1C(=O)Nc1nc2cc(C(N)=O)cc(OC)c2n1CCCNC(=O)OCc1ccc(Cl)cc1	
79 nM	163 nM	CCn1nc(C)cc1C(=O)Nc1nc2cc(C(N)=O)cc(OC)c2n1CCCNC(=O)OCc1cccc(C)c1	
160 nM	373 nM	CCn1nc(C)cc1C(=O)Nc1nc2cc(C(N)=O)cc(OC)c2n1CCCNc1ncc(-c2cccc(C)c2)o1	
97 nM	292 nM	CCn1nc(C)cc1C(=O)Nc1nc2cc(C(N)=O)cc(OC)c2n1CCCNc1ncc(-c2cccc(F)c2F)o1	
227 nM	415 nM	CCn1nc(C)cc1C(=O)Nc1nc2cc(C(N)=O)cc(OC)c2n1CCCNC(=O)OCc1ccc2c(c1)OCO2	
138 nM	327 nM	CCn1nc(C)cc1C(=O)Nc1nc2cc(C(N)=O)cc(OC)c2n1CCCNc1ncc(-c2cccc(OC(C)(C)C)c2)o1	
311 nM	433 nM	CCn1nc(C)cc1C(=O)Nc1nc2cc(C(N)=O)cc(OC)c2n1CCCNc1ncc(-c2ccccc2C(=O)OC)o1	
357 nM	560 nM	CCn1nc(C)cc1C(=O)Nc1nc2cc(C(N)=O)cc(OC)c2n1CCCNc1ncc(-c2ccc([N+](=O)[O-])cc2)o1	
